From patent US20160346320A1, “SUBSTANCE FOR INHIBITING TISSUE CALCIFICATION, TISSUE FIBROSATION AND AGE-RELATED DISEASES” (Fresenius Kabi Deutschland GmbH, priority 2013, published 2016)
“Also recorded” adds a separate entry of the source.

Assays:
[1] = system: alkaline phosphatase (ALP) mRNA; assay type: cell-based, human
[2] = growth and body weight of klotho mice; assay type: in vivo; details: for body weight / growth deficit: NH4Cl 0.28 M or acetazolamide 800 mg/l in drinking water
[3] = blood chemistry: plasma concentrations in klotho mice; assay type: in vivo; details: NH4Cl 0.28 M or acetazolamide 800 mg/l in drinking water
[4] = system: NFAT5; assay: NFAT5 expression in aortas of klotho mice; assay type: in vivo; details: NH4Cl 0.28 M in drinking water
[5] = system: Runx2 mRNA; assay type: cell-based, human
[6] = system: SOX9; assay: SOX9 expression in HAoSMCs, quantitative RT-PCR; assay type: cell-based, human; details: NH4Cl 500 μM
Procedure: (§1) The following experimental studies were executed: Primary human aortic smooth muscle cells (HAoSMCs, Invitrogen) were cultivated in Waymouth's MB 752/1 medium and Ham's F12 nutrient mixture (1:1, Gibco, Life Technologies) with the addition of 10% FBS (Gibco, Life Technologies). In all experiments, confluent HAoSMCs, passages 4 to 11, were used. The cells were treated for 24 hours with 2 mM β-glycerophosphate (Sigma-Aldrich) with or without simultaneous addition of 0.5 mM ammonium salts or 100 μM chloroquine diphosphate (Sigma-Aldrich). Quantitative RT-PCR (real time polymerase chain reaction) were carried out, as described previously (Voelkl, J., Alesutan, I., Leibrock, C. B., Quintanilla-Martinez, L., Kuhn, V., Feger, M., Mia, S., Ahmed, M. S., Rosenblatt, K. P., Kuro, O., Lang, F.: Spironolactone ameliorates PIT1-dependent vascular osteoinduction in klotho-hypomorphic mice. J. Clin Invest 2013; February 1; 123(2):812-22). For this, HAoSMCs were washed and total RNA were isolated using Trifast reagent (Peqlab) according to the directions from the manufacture. […] The total RNA were likewise isolated with Trifast reagent (Peqlab) in accordance with the directions from the manufacture. In each case, 2 μg RNA of the human as well as the murine samples were used for the reverse transcription of the RNA with oligo(dT)12-18 primers (Invitrogen) and SuperScripIII Reverse Transcriptase (Invitrogen). Quantitative real-time PCR were carried out with an iCycler iQ™ Real-Time PCR Detection System (Bio-Rad Laboratories) and iQ™ Sybr Green Supermix (Bio-Rad Laboratories) according to the manufacturer's instructions. The following primers were used (5′ orientation): […]
(§2) The specificity of the PCR products was checked by means of melting curve analysis and agarose gel electrophoresis. All PCRs were each carried out twice, and the multiple mRNA quantities were calculated by means of the […] methods with GAPDH as the internal reference.

[7] = system: TGFβ1 mRNA; assay type: cell-based, human
[8] = system: NFAT5; assay: NFAT5 expression in HAoSMCs, quantitative RT-PCR; assay type: cell-based, human; details: NH4Cl 500 μM
Procedure: as §1, §2

[9] = HAoSMCs transfected with NFAT5, 2 mM β-glycerophosphate
[10] = HAoSMCs transfected with empty vectors, 2 mM β-glycerophosphate
[11] = HAoSMCs, 2 mM β-glycerophosphate

Compound	ALP mRNA expression increase [1]	body weight [2]	growth deficit [2]	Runx2 mRNA expression increase [5]	TGFβ1 mRNA expression increase [7]	further results
CCN(CC)CCCC(C)Nc1ccnc2cc(Cl)ccc12 (racemic) [chloroquine, (RS)—N′-(7-chloroquinoline-4-yl)-N,N-diethyl-pentane-1,4-diamine]	reduce the expression; also recorded: suppression of the ALP mRNA expression increase					
CC(=O)Nc1nnc(S(N)(=O)=O)s1 [acetazolamide]		could be increased	could not be fully compensated			concentration of matrix gla protein (MGP) in plasma [3]: fully normalize
Cl.N [ammonium chloride, Ammonium chloride]	reduce the expression; also recorded: suppression of the expression increase	nearly entirely neutralize the weight deficiency	nearly entirely neutralized	inhibit the expression; also recorded: suppressed	inhibit the formation of TGFβ1; also recorded: prevented	growth ([2]; wild mice (klotho^+/+), NH4Cl 0.28 M in drinking water): no growth stimulation; expression of NFAT5 in aortas [4]: normalization of the transcription level; expression of SOX9 [6, 9]: prevents the effect of NH4Cl; also recorded: remained high; expression of SOX9 [6, 10]: sink back to a normal level; transcription level of SOX9 [6, 11]: reduced the expression; expression of NFAT5 [8, 9]: remained high; expression of NFAT5 [8, 10]: sink back to a normal level; transcription level of NFAT5 [8, 11]: reduced the expression; also recorded: reverse the increase
CC(O)C(=O)O.N (stereo not shown) [ammonium lactate, Ammonium lactate]					inhibit the formation of TGFβ1; also recorded: lessened	
N.N.O=S(=O)(O)O [ammonium sulfate, Ammonium sulfate]	reduce the expression; also recorded: suppression of the expression increase			inhibit the expression; also recorded: suppressed	inhibit the formation of TGFβ1; also recorded: lessened	
Ammonium citrate					inhibit the formation of TGFβ1; also recorded: lessened	
